# Test results published in ChEMBL document CHEMBL1201862, “PubChem BioAssay data set” (2004).
# Activity calls are given as the source filed them.
# How the values were obtained:
# [1] = target: T1, Adenosylmethionine-8-amino-7-oxononanoate aminotransferase (Mycobacterium tuberculosis, UniProt P9WQ81); experiment: Mycobacterium tuberculosis BioA enzyme inhibitor Measured in Biochemical System Using Plate Reader - 2163-02_Inhibitor_Dose_CherryPick_Activity.; assay type: functional, Mycobacterium tuberculosis UT205
# T1 sequence (P9WQ81 whole entry): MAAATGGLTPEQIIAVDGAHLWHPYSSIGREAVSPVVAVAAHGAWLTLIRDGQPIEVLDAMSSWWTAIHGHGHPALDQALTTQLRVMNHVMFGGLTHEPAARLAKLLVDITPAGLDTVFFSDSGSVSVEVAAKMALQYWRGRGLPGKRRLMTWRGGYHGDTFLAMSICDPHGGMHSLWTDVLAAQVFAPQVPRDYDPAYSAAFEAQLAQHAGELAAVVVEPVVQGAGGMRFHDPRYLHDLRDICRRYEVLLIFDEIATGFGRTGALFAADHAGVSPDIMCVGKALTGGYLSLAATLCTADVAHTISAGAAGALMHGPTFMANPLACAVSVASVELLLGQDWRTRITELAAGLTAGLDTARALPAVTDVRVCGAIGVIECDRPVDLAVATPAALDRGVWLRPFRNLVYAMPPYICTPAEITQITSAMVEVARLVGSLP
# [2] = target: T2, Sentrin-specific protease 1 (Homo sapiens, UniProt Q9P0U3); experiment: potency of human SENP1 inhibitors, dose response, biochemical, kinetic FRET (AID 651697); assay type: functional; details: read-out: IC50_Mean
# T2 sequence (Q9P0U3 whole entry): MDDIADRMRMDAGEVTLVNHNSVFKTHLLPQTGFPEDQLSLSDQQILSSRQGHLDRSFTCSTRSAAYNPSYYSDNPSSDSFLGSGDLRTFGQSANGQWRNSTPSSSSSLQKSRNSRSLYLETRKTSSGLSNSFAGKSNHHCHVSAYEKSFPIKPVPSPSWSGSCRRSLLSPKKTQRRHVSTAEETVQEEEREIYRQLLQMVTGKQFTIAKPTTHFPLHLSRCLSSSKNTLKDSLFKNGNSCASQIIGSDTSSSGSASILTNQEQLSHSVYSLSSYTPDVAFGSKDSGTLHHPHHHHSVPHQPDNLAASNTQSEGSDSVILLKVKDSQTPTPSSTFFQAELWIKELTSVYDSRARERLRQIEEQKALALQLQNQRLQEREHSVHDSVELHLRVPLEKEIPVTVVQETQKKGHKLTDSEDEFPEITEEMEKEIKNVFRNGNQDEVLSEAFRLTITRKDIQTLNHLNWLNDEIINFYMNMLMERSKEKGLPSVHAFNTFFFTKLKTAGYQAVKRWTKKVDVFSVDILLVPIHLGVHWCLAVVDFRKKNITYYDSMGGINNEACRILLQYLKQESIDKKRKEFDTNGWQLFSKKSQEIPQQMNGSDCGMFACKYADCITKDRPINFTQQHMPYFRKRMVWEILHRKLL
# [3] = target: T2, Sentrin-specific protease 1; experiment: Dose response confirmation of small molecule inhibitors of the catalytic domain of the SUMO protease, SENP1 in a FRET assay.; assay type: functional; details: read-out: IC50_Mean
# [4] = AlphaScreen signal interference compounds, dose response, artefact control for ARNT-TACC3 interaction inhibitor project, biochemical, luminescence, cherry-pick (AID 651705); assay type: functional;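 further: AlphaScreen bead proximity signal that flags compounds interfering with the detection technology; potency reflects signal decrease which marks the compound as an assay artifact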
# [5] = target: T3, High affinity choline transporter 1 (Homo sapiens, UniProt Q9GZV3); experiment: CHT inhibitors, dose response, cell-based, 5-point CRC, membrane potential dye (AID 504840); assay type: functional
# T3 sequence (Q9GZV3 whole entry): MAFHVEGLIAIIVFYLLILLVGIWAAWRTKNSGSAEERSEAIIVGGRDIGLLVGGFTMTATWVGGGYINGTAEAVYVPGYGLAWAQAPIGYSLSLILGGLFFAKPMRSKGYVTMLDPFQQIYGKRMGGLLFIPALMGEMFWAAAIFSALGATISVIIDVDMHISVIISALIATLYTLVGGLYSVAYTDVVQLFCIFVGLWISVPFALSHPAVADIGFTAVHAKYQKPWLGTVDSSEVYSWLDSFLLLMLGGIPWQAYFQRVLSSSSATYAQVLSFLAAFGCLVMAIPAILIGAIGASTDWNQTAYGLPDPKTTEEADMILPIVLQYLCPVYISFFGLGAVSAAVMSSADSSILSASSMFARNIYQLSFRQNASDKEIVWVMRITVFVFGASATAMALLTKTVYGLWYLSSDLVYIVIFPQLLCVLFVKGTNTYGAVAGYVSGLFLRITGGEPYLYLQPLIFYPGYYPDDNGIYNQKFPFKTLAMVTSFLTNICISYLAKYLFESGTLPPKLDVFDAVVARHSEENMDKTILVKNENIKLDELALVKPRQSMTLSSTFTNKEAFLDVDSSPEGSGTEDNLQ
# [6] = target: T3, High affinity choline transporter 1; experiment: CHT inhibitors, dose response, cell-based, 10-point CRC, membrane potential dye (AID 588401); assay type: functional;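 further: membrane potential dye fluorescence of choline-evoked depolarization via CHT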
# [7] = target: T4, RNA-binding protein pos-1 (Caenorhabditis elegans, UniProt G5EF15); experiment: inhibitors of POS-1/mex-3 RNA binding, dose response, biochemical, fluorescence polarization (AID 1964);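 further: purified POS-1 fused to maltose binding protein made in E. coli; potency of compounds blocking POS-1 binding to fluorescent RNA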
# T4 sequence (G5EF15 whole entry): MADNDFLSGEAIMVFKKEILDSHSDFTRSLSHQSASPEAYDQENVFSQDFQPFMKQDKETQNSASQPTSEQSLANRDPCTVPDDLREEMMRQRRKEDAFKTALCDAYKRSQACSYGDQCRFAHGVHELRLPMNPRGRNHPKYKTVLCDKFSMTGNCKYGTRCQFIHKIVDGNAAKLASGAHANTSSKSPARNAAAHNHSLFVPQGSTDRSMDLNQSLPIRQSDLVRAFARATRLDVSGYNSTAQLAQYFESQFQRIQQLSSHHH
# [8] = target: T5, Zinc finger protein mex-5 (Caenorhabditis elegans, UniProt Q9XUB2); experiment: MEX-5/TCR-2 RNA interaction inhibitors, dose response, biochemical, C. elegans, fluorescence polarization (AID 1960)
# T5 sequence (Q9XUB2 whole entry): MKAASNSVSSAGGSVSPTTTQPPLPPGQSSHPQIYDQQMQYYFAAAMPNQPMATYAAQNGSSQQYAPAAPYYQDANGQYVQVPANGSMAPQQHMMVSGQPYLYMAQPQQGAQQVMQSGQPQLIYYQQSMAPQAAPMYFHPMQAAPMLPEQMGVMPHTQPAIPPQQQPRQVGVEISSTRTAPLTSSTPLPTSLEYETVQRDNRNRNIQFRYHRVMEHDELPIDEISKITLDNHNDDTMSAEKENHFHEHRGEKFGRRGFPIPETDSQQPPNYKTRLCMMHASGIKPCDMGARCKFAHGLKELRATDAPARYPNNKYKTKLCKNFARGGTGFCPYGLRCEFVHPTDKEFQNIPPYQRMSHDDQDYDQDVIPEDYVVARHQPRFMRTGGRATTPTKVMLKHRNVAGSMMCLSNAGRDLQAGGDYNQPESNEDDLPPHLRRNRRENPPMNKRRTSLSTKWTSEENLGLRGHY
# [9] = target: DNA (cytosine-5)-methyltransferase 1 (Homo sapiens, UniProt P26358); experiment: DNMT1 methyltransferase inhibitors, confirmation, biochemical, fluorescent molecular beacon (AID 602386); assay type: functional
# [10] = target: T6, Mitochondrial peptide methionine sulfoxide reductase (Bos taurus, UniProt P54149); assay type: functional;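 further: absorbance read-out, biochemical high-throughput dose-response screen for MsrA inhibitors, confirmatory; recombinant bovine MsrA coupled to E. coli TrxB with NADPH and selenocystamine; potency is for inhibitors of MsrA activity on DMSO substrate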
# T6 sequence (P54149 whole entry): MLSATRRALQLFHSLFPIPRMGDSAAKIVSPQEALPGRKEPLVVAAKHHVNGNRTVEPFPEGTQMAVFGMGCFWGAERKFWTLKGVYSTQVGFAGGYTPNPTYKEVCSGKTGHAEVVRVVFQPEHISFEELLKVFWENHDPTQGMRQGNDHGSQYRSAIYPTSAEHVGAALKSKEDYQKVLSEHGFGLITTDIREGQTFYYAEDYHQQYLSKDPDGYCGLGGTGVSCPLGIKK
# [11] = target: T7, Probable nicotinate-nucleotide adenylyltransferase (Staphylococcus aureus (strain N315), UniProt P65502); assay type: functional, Staphylococcus aureus subsp. aureus N315;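 on IC50 Mean: confirmatory dose-response retesting of NadD inhibitor hits first found in an ultra-high-throughput screen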
# [12] = target: T7, Probable nicotinate-nucleotide adenylyltransferase; assay type: functional, Staphylococcus aureus subsp. aureus N315; details: read-out: IC50_Mean
# [13] = target: T8, Small ubiquitin-related modifier 1 (Homo sapiens, UniProt P63165); experiment: inhibitors of SUMO1 peptide binding, dose response, biochemical, fluorescence polarization, uHTS hits (AID 624382); assay type: functional; details: read-out: IC50_Mean
# [14] = target: T8, Small ubiquitin-related modifier 1; experiment: inhibitors of SUMO1 partner interactions, dose response, biochemical, FRET (AID 624383); assay type: functional; details: read-out: IC50_Mean
# Aminopeptidase N = target: T9, Aminopeptidase N (Plasmodium falciparum FcB1/Columbia, UniProt O96935); experiment: P. falciparum M1AAP inhibitors, biochemical, fluorogenic H-Leu-NHMec substrate, 1536-well (AID 1445); parameters: species or system Plasmodium falciparum 3D7, 3D7
# T9 sequence (O96935 whole entry): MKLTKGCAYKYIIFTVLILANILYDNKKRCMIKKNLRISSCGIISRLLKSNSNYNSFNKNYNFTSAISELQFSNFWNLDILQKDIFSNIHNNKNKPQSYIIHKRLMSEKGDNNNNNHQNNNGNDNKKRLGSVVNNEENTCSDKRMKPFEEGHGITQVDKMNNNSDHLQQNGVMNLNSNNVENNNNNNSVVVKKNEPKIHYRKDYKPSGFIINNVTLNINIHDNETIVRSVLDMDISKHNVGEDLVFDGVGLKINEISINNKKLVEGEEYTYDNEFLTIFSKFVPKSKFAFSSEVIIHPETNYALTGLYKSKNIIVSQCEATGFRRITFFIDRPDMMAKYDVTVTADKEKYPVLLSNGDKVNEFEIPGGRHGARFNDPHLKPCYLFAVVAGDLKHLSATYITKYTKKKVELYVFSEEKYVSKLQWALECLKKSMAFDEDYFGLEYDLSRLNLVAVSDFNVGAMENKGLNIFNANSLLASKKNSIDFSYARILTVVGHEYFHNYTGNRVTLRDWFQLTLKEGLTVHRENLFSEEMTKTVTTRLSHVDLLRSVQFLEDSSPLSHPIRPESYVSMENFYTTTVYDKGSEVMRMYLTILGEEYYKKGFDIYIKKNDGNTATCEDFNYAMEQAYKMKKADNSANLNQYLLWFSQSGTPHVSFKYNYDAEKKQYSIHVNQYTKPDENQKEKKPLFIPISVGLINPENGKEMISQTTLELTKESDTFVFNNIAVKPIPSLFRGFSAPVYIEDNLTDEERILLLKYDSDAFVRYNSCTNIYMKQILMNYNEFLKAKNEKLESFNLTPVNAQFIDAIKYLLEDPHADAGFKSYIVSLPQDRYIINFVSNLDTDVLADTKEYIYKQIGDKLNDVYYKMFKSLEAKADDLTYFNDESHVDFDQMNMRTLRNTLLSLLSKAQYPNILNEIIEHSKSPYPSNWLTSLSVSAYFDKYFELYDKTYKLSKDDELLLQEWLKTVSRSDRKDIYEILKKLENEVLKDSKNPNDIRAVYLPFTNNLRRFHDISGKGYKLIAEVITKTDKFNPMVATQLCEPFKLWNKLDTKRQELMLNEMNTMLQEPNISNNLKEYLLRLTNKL
# cells [15] = assay type: functional, cell-based
# cells [16] = assay type: functional, cell-based; remark: listed apart in the source
# Nonstructural protein 1 = Nonstructural protein 1 (Influenza A virus, UniProt Q194T2); assay type: functional, Influenza A virus (A/California/07/2009(H1N1))
# Sequence of Nonstructural protein 1 (Q194T2 whole entry): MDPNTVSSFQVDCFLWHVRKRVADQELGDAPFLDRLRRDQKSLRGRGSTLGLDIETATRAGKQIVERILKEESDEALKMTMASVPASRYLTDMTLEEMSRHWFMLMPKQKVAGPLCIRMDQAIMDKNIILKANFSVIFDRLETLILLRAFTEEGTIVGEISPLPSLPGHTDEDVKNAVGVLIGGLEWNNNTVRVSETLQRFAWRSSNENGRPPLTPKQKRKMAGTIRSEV
# Sequence of DNA (cytosine-5)-methyltransferase 1 (P26358 whole entry): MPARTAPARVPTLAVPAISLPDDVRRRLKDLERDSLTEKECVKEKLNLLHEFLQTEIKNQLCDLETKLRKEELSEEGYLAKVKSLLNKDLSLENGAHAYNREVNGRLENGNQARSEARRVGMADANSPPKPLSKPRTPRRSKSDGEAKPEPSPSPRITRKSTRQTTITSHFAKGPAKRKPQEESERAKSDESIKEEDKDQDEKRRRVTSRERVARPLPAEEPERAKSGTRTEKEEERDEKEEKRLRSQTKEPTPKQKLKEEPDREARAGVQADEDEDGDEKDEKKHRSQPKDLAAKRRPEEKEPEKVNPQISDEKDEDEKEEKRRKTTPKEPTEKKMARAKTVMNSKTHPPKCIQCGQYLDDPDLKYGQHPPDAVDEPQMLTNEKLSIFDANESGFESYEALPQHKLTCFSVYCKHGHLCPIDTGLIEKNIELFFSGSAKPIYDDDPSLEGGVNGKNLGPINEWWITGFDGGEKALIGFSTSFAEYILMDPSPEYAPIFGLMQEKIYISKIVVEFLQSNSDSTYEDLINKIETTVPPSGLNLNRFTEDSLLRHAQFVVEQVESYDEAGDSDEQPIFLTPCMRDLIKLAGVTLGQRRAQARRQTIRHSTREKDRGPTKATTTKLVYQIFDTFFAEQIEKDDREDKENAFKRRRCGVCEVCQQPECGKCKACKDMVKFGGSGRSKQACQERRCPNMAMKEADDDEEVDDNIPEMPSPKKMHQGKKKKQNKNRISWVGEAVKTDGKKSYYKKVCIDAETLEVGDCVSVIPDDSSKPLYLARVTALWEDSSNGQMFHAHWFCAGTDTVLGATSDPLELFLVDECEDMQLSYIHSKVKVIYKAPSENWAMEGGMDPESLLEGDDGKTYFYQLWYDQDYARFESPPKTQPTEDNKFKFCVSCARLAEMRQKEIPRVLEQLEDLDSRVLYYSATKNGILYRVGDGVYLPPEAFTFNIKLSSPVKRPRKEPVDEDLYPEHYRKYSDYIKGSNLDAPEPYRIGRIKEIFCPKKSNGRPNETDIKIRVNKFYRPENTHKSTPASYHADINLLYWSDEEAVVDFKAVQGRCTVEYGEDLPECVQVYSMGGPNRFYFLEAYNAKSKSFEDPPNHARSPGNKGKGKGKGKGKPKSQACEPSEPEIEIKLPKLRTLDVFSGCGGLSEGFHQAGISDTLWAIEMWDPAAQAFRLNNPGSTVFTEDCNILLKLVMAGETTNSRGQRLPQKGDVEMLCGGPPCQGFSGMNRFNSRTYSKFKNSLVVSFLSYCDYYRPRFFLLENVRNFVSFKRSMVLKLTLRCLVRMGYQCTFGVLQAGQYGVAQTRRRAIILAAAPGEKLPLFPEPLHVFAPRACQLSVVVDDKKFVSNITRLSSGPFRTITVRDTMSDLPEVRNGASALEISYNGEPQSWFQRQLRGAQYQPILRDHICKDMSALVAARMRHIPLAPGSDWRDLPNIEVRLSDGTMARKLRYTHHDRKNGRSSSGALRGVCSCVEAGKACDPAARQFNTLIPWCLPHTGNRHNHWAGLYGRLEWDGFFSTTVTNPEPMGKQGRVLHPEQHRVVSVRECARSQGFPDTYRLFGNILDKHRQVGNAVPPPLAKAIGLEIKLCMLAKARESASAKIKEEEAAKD
# T8 sequence (P63165 whole entry): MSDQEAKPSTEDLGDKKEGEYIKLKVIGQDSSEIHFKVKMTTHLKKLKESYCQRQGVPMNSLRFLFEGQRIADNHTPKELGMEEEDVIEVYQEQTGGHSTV
# T7 sequence (P65502 whole entry): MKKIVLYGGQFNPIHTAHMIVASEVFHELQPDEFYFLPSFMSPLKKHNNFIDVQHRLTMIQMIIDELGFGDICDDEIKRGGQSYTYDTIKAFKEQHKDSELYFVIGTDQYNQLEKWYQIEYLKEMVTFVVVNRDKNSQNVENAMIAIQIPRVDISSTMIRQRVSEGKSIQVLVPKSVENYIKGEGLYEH
smiles,measurement,setting,value
CC(=O)c1ccc(N2CCN(C(=O)c3ccc(Br)cc3)CC2)c(F)c1,AC50,[1],0.182 µM (active)
Nc1ccc2c(c1)C(=O)N(CCCC(=O)O)C2=O,IC50,[2],13.1 µM (active)
same,IC50,[3],19 µM (active)
O=C(CSc1ccc2nnc(-c3ccccn3)n2n1)Nc1ccc2c(c1)OCO2,AC50,[4],107 µM (active)
O=C(Nc1nnc(C2=COCCO2)o1)c1ccc([N+](=O)[O-])cc1,AC50,[4],101 µM (active)
CCCn1c2ccccc2c2cnn(CC(=O)NCCN(CC)CC)c(=O)c21,IC50,[5],5.7 µM (active)
same,IC50,[6],3.36 µM (active)
CC1(C)CC(=O)C=C(c2ccc3ncccc3c2)C1,AC50,[1],4.74 µM (active)
Cc1c(C(=O)O)cccc1-n1c(C)cc(/C=C2\C(=O)NC(=O)N(c3ccc4c(c3)OCO4)C2=O)c1C,EC50,[7],> 300 µM (not active)
same,EC50,[8],> 300 µM (not active)
same,IC50,[9],18 µM (active)
CCc1occc(=O)c1Oc1cc(NN2CCCCC2)c([N+](=O)[O-])cc1[N+](=O)[O-],IC50,[10],119 µM (inactive)
O=C(Nc1ccc2nccnc2c1)c1cnccn1,AC50,[1],6.04 µM (active)
N#C/C(=C\Nc1ccccc1O)c1nc2ccccc2o1,IC50,[10],155 µM (inactive)
O=[N+]([O-])c1cc(NS(=O)(=O)c2ccc(Cl)nc2)ccc1Cl,IC50,[5],2.4 µM (active)
same,IC50,[6],3.35 µM (active)
COc1ccc(Oc2c(OC)cc(NCc3ccc(CN)cc3)c3ncccc23)cc1,IC50,[9],10.3 µM (active)
same,IC50,[11],7.55 µM (active)
same,IC50,[12],41.3 µM (active)
CC(=O)c1ccc(OCCCC(=O)OCC(=O)Nc2ccc3[nH]c(O)nc3c2)cc1,IC50,[13],> 66.6 µM (inactive)
same,IC50,[14],16.9 µM (active)
O=C(N/N=C/c1cc(Br)ccc1O)C(c1ccncc1)N1CCOCC1 (configuration not stated),IC50,Aminopeptidase N,12 µM (active)
same,EC50,cells [15],189 µM (active)
same,EC50,cells [16],> 350 µM (not active)
same,IC50,Nonstructural protein 1,12.5 µM (active)
same,AC50,[4],78.4 µM (active)
C/C(CCC(=O)O)=N/Nc1ccc([N+](=O)[O-])cc1[N+](=O)[O-],IC50,[10],155 µM (inactive)
